# According to PubChem BioAssay (NCI):
#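 In this assay, cells in 96-well plates receive the compound at five concentrations for 48 hours. Endpoints are linearly interpolated between the surrounding concentrations. TGI marks complete inhibition of growth.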
# Tests used:
# Experiment in all cases: DTP human tumour cell line panel, 48 h
# [1] = tested on: 786-0 renal
# [2] = tested on: KM12 colon
# [3] = tested on: SK-MEL-2 melanoma
# [4] = tested on: EKVX NSCLC
# [5] = tested on: ACHN renal
# [6] = tested on: SNB-78 CNS
# [7] = tested on: OVCAR-4 ovarian
# [8] = tested on: DMS 273 small cell lung
# [9] = tested on: M14 melanoma
# [10] = tested on: UO-31 renal
# [11] = tested on: SF-268 CNS
# [12] = tested on: RPMI-8226 leukemia
# [13] = tested on: HOP-62 NSCLC
# [14] = tested on: COLO 205 colon
# [15] = tested on: A549 NSCLC
# [16] = tested on: U251 CNS
# [17] = tested on: A498 renal
# [18] = tested on: HOP-92 NSCLC
# [19] = tested on: SF-295 CNS
# [20] = tested on: TK-10 renal
# [21] = tested on: SR leukemia
# [22] = tested on: NCI-H226 lung
# [23] = tested on: KM20L2 colon
# [24] = tested on: SK-MEL-28 melanoma
# [25] = tested on: SNB-75 CNS
# [26] = tested on: RXF-631 renal
# [27] = tested on: DMS 114 small cell lung
# [28] = tested on: DLD-1 colon
# [29] = tested on: MOLT-4 leukemia
# [30] = tested on: NCI-H460 lung
# [31] = tested on: UACC-62 melanoma
# [32] = tested on: SN12C renal
# [33] = tested on: HCT-15 colon
# [34] = tested on: MALME-3M melanoma
# [35] = tested on: SK-OV-3 ovarian
# [36] = tested on: HT29 colon
# [37] = tested on: NCI-H522 lung
# [38] = tested on: SW-620 colon
# [39] = tested on: UACC-257 melanoma
# [40] = tested on: M19-MEL melanoma
# [41] = tested on: XF 498 CNS
# [42] = tested on: K-562 leukemia
# [43] = tested on: SNB-19 CNS
# [44] = tested on: SF-539 CNS
# [45] = tested on: CAKI-1 renal
# [46] = tested on: LOX IMVI melanoma
# [47] = tested on: SK-MEL-5 melanoma
# [48] = tested on: OVCAR-3 ovarian
# [49] = tested on: RXF 393 renal
# [50] = tested on: CCRF-CEM leukemia
# [51] = tested on: OVCAR-8 ovarian
# [52] = tested on: IGROV1 ovarian
# [53] = tested on: NCI-H23 lung
# [54] = tested on: HCC-2998 colon
# [55] = tested on: OVCAR-5 ovarian
# [56] = tested on: LXFL 529 NSCLC
# [57] = tested on: HOP-18 NSCLC
# [58] = tested on: HCT-116 colon
# [59] = tested on: HL-60(TB) leukemia
smiles,measurement,setting,value
CSc1nc(SC)c2c(C#N)[nH]nc2n1,TGI,[1],> 100 µM
same,TGI,[2],> 100 µM
same,TGI,[3],> 100 µM
same,TGI,[4],> 100 µM
same,TGI,[5],> 100 µM
same,TGI,[6],> 100 µM
same,TGI,[7],> 100 µM
same,TGI,[8],> 100 µM
same,TGI,[9],> 100 µM
same,TGI,[10],> 100 µM
same,TGI,[11],> 100 µM
same,TGI,[12],> 100 µM
same,TGI,[13],> 100 µM
same,TGI,[14],> 100 µM
same,TGI,[15],> 100 µM
same,TGI,[16],> 100 µM
same,TGI,[17],> 100 µM
same,TGI,[18],> 100 µM
same,TGI,[19],> 100 µM
same,TGI,[20],> 100 µM
same,TGI,[21],> 100 µM
same,TGI,[22],> 100 µM
same,TGI,[23],> 100 µM
same,TGI,[24],> 100 µM
same,TGI,[25],> 100 µM
same,TGI,[26],> 100 µM
same,TGI,[27],> 100 µM
same,TGI,[28],> 100 µM
same,TGI,[29],> 100 µM
same,TGI,[30],> 100 µM
same,TGI,[31],> 100 µM
same,TGI,[32],> 100 µM
same,TGI,[33],> 100 µM
same,TGI,[34],> 100 µM
same,TGI,[35],> 100 µM
same,TGI,[36],> 100 µM
same,TGI,[37],> 100 µM
same,TGI,[38],> 100 µM
same,TGI,[39],> 100 µM
same,TGI,[40],> 100 µM
same,TGI,[41],> 100 µM
same,TGI,[42],> 100 µM
same,TGI,[43],> 100 µM
same,TGI,[44],> 100 µM
same,TGI,[45],> 100 µM
same,TGI,[46],> 100 µM
same,TGI,[47],> 100 µM
same,TGI,[48],> 100 µM
same,TGI,[49],> 100 µM
same,TGI,[50],> 100 µM
same,TGI,[51],> 100 µM
same,TGI,[52],> 100 µM
same,TGI,[53],> 100 µM
same,TGI,[54],> 100 µM
Cc1ccccc1C(=O)c1cc(O)ccc1O,TGI,[1],> 100 µM
same,TGI,[2],> 100 µM
same,TGI,[3],> 100 µM
same,TGI,[4],> 100 µM
same,TGI,[5],> 100 µM
same,TGI,[6],> 100 µM
same,TGI,[7],> 100 µM
same,TGI,[55],> 100 µM
same,TGI,[8],> 100 µM
same,TGI,[9],> 100 µM
same,TGI,[56],> 100 µM
same,TGI,[10],> 100 µM
same,TGI,[11],> 100 µM
same,TGI,[12],> 100 µM
same,TGI,[13],> 100 µM
same,TGI,[14],> 100 µM
same,TGI,[15],> 100 µM
same,TGI,[16],> 100 µM
same,TGI,[17],> 100 µM
same,TGI,[57],> 100 µM
same,TGI,[18],> 100 µM
same,TGI,[19],> 100 µM
same,TGI,[20],> 100 µM
same,TGI,[21],> 100 µM
same,TGI,[22],> 100 µM
same,TGI,[23],> 100 µM
same,TGI,[25],> 100 µM
same,TGI,[26],> 100 µM
same,TGI,[27],> 100 µM
same,TGI,[28],> 100 µM
same,TGI,[29],> 100 µM
same,TGI,[30],> 100 µM
same,TGI,[31],> 100 µM
same,TGI,[32],> 100 µM
same,TGI,[33],> 100 µM
same,TGI,[34],> 100 µM
same,TGI,[58],> 100 µM
same,TGI,[59],> 100 µM
same,TGI,[35],> 100 µM
same,TGI,[36],> 100 µM
same,TGI,[37],99.1 µM
same,TGI,[38],> 100 µM
same,TGI,[39],> 100 µM
same,TGI,[40],> 100 µM
same,TGI,[41],> 100 µM
same,TGI,[42],> 100 µM
same,TGI,[43],> 100 µM
same,TGI,[44],> 100 µM
same,TGI,[45],> 100 µM
same,TGI,[47],> 100 µM
same,TGI,[48],> 100 µM
same,TGI,[49],> 100 µM
same,TGI,[50],> 100 µM
same,TGI,[51],> 100 µM
same,TGI,[52],> 100 µM
same,TGI,[53],> 100 µM
same,TGI,[54],> 100 µM
